For test [1], the system named is planktonic bacteria. Kind of test: Average planktonic bacterial concentration in liquid culture (plate count / OD600 turbidity). The class given is cell-based. The conditions noted are these: control 8.7. An excerpt: (§1) Additional testing was run to show various evaluated concentrations of chemistries including No Treatment (Control), QAT Biocide, Chemical B, and Chemical A+E for assessing biofilm reduction based on average planktonic bacterial concentrations as shown in Table 5.
The following methodology for the bacterial concentration in liquid culture were used:
Plate count: plate the treated bacterial mixture after serial dilutions with required mediums like R2A, Petrifilms etc.
(§2) OD600 turbidity: bacterial concentration is correlated with the medium turbidity, The planktonic concentration can be calculated using a turbidity to bacterial count concentration model. If OD600 is <0.1, it is considered bacterial counts <10^3 cfu/ml.

Test [2] relates to Cooling Water Bacteria Population 1. Kind of test: Biofilm inhibition test, 96 well microtiter plate, crystal violet stain (similar to ASTM E2799-12 MBEC assay). The class given is cell-based. An excerpt: The bacterial species used for the biofilm inhibition testing included: 1) cooling water bacterial population 1=total aerobic bacterial population that was obtained from cooling water samples in cooling water systems and grown on standard nutrient agar for aerobic bacteria, and 2) cooling water bacterial population 2=Pseudomonas species in cooling water systems. Pseudomonas species were collected from cooling water samples from selective media. The collected Pseudomonas population from cooling water systems were stored at −80° C. and re-inoculated into 100 mL fresh test medium (described below), incubated at a rotary shaker at 35° C., […] for 18-24 hours before used as a starter culture. […]
(§3) To quantify the biofilm and effect of the chemicals, the minimal biofilm eradication concentration (MBEC) using a method similar to the ASTM method for Testing disinfectant efficacy against Pseudomonas aeruginosa Biofilm using MBEC Assay (E2799-12), Standard Test Method for Testing Disinfectant Efficacy against Pseudomonas aeruginosa Biofilm using MBEC Assay. […]
The control where there was no chemical treatment present indicated a steady presence of biofilm build up between absorbance 0.5 to 0.6. The biofilm concentrations are correlated to the absorbance at wavelength 580-595 nm (depicted in figures as Obs 580 nm). […]

The subject of test [3] is Bact P2 (Cooling Water Bacteria Population 2), planktonic growth. Kind of test: Planktonic inhibition (minimum inhibition concentration in liquid culture). The format is cell-based. The settings on record: minimum inhibitory concentration.
Text: (§4) Another plate was run according to the same procedures outlined in Examples 1-3. The experiment tested Chemicals including Alkyl Poly Glucoside, QAT Biocide, Chemical B, Chemical A+D for Planktonic inhibition as well as Biofilm Inhibition as reflected in Table 4.
(§5) The results in Table 4 show minimum biofilm inhibition concentrations (ppm) when treating different bacterial populations with each of the chemicals alone.
(§6) Minimum Inhibition Concentration (MIC): at this concentration, bacterial population stopped growth under the above incubation conditions
as §2

Test [4] concerns Bact P1 (Cooling Water Bacteria Population 1), planktonic growth. The description is as above. The format is cell-based.
Text: as §4, §5, §6, §2

Test [5] relates to biofilm. Put plainly: Biofilm quantity on surface by crystal violet staining, biofilm reduction vs control. The format is cell-based. The conditions noted are these: for Avg Biofilm Reduction: (Treatment OD595 - Control OD595)*100/Control OD595, negative = less biofilm.
Text: as §1
The following methodology for the biofilm concentration on surface were used:
Biofilm quantity: biofilm quantity grew on surface can be determined by crystal violate staining, followed by 3 times of washing and then eluting.
Biofilm Reduction from chemical treatment is calculated by the following: (average Treatment OD595-average Control OD595)*100/average Control OD595 where the CV absorbance range used was 580-595 nm. If OD595 was <0.1, it was considered as non-biofilm formation. CV absorbance range 580-595 nm was used in different tests.

The subject of test [6] is Cooling Water Bacteria Population 2. Kind of test: Biofilm inhibition test, 96 well microtiter plate, crystal violet stain (similar to ASTM E2799-12 MBEC assay). The class given is cell-based, Pseudomonas species in cooling water systems.
Text: The bacterial species used for the biofilm inhibition testing included: 1) cooling water bacterial population 1=total aerobic bacterial population that was obtained from cooling water samples in cooling water systems and grown on standard nutrient agar for aerobic bacteria, and 2) cooling water bacterial population 2=Pseudomonas species in cooling water systems. Pseudomonas species were collected from cooling water samples from selective media. The collected Pseudomonas population from cooling water systems were stored at −80° C. and re-inoculated into 100 mL fresh test medium (described below), incubated at a rotary shaker at 35° C., […] for 18-24 hours before used as a starter culture.
The concentration range for the testing of these microorganisms for the waters was 10^4-10^8 CFU/ml.
The following Examples utilized a 96-well microtiter plate and aerobic incubation.
The Biofilm inhibition testing utilized a test medium with a final concentration of 16% test medium in the water. […]
as §3

Test [7] concerns indigenous microbial populations of cooling water sources. Put plainly: MIC of hypochlorite (as free chlorine) for biofilm formation in commercial cooling water sources. The format is cell-based. The settings on record: for MIC hypochlorite: hypochlorite alone, as free chlorine. As for the experimental part:
Additional testing was completed to show the benefit of reducing a biocidal dose with the method of preventing biofilms described herein. Various commercial cooling water sources were evaluated for the MIC of hypochlorite (Minimum Inhibition Concentration as free chlorine for biofilm formation) as the biocide dosed with the Chemistry A+Chemistry E. The test conditions and results are shown in Table 6.
Under certain conditions the biocide dosing requirement was reduced by over 90%.

Setting [8] is: concentration giving biofilm reduction.
The mark [9] stands for this setting: minimum biofilm inhibition concentration.

Bounds are passed on as bounds.

As to `CCCCCCCCCC[N+](C)(C)CCCCCCCCCC.[Cl-]` [QATS Biocide, Didecyl Dimethyl Ammonium Chloride], the “Avg Planktonic Bacterial Conc” value was 8.672 Log cfu/ml in test [1] (1.6 ppm); 8.688 Log cfu/ml in test [1] (3.1 ppm); 8.609 Log cfu/ml in test [1] (6.2 ppm); 8.492 Log cfu/ml in test [1] (12.5 ppm); 8.590 Log cfu/ml in test [1] (25.0 ppm); below 3.000 Log cfu/ml in test [1] (50.0 ppm). The “Avg Planktonic Bacterial Conc” value in test [1] (100.0 ppm) is below 3.000 Log cfu/ml. Further, the “Biofilm Reduction Bact P1” value in test [2] (setting [8]) is 0.8 ppm. For the same molecule, the “Total Biofilm Inhibition Bact P1” value in test [2] (setting [9]) is recorded as 6 ppm. For the same molecule, in test [3], the “Planktonic Inhibition Bact P2” value is recorded as 1.6 ppm. Moreover, the “Concentration that effectively killed planktonic bacteria” value in test [4] (Table 4, Bact P1 and Bact P2) was at most 3 ppm. Besides, the “Planktonic Inhibition Bact P1” value in test [4] (minimum inhibitory concentration, Bact P1) worked out at 3 ppm. Further, the “Avg Biofilm Reduction” value is on record as 49.9% in test [5] (1.6 ppm); 54.0% in test [5] (3.1 ppm); 108.4% in test [5] (6.2 ppm); −3.5% in test [5] (12.5 ppm); 34.7% in test [5] (25.0 ppm); −89.1% in test [5] (50.0 ppm). In addition, the “Avg Biofilm Reduction” value in test [5] (100.0 ppm) is on record as −12.1%. Also, the “Concentration showing both planktonic and biofilm control” value in test [5] (Table 5) is given as “greater than 50 ppm”. Also, the “Biofilm reduction Bact P2” value in test [6] (setting [8]) came out at 0.8 ppm. In test [6] (setting [9]), the “Total Biofilm Inhibition Bact P2” value is given as 1.6 ppm.

`OCl` [hypochlorite]: the MIC hypochlorite in test [7] (Cooling Water Source 1) is given as 25 ppm; in test [7] (Cooling Water Source 2) it was 25 ppm; in test [7] (Cooling Water Source 3), 12.5 ppm; in test [7] (Cooling Water Source 4) it was 25 ppm. The “MIC hypochlorite (ppm) With 6 ppm Chemistry A + Chemistry E” value in test [7] (Cooling Water Source 1) came out at 3.1 ppm; in test [7] (Cooling Water Source 2), 6.3 ppm; in test [7] (Cooling Water Source 3), 0.8 ppm; in test [7] (Cooling Water Source 4) it was 12.5 ppm.
